Data: PubChem BioAssay (NCI)
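Dose response: 5 concentrations. Exposure: 48 h. Format: 96-well plates. Endpoint: linear interpolation; highest concentration if not reached. TGI is the concentration that stops growth completely.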

How the values were obtained:
Experiment in all cases: NCI-60 cell line screen, 48 h
A498 renal = test system: A498 renal
A549 NSCLC = test system: A549 NSCLC
HOP-92 NSCLC = test system: HOP-92 NSCLC
HS 578T breast = test system: HS 578T breast
MDA-MB-231 breast = test system: MDA-MB-231 breast
NCI/ADR-RES ovarian = test system: NCI/ADR-RES ovarian
SF-295 CNS = test system: SF-295 CNS
SK-MEL-2 melanoma = test system: SK-MEL-2 melanoma
SNB-19 CNS = test system: SNB-19 CNS
SNB-75 CNS = test system: SNB-75 CNS
UACC-257 melanoma = test system: UACC-257 melanoma

SMILES	TGI (A498 renal)	TGI (A549 NSCLC)	TGI (HOP-92 NSCLC)	TGI (HS 578T breast)	TGI (MDA-MB-231 breast)	TGI (NCI/ADR-RES ovarian)	TGI (SF-295 CNS)	TGI (SK-MEL-2 melanoma)	TGI (SNB-19 CNS)	TGI (SNB-75 CNS)	TGI (UACC-257 melanoma)
CC(=O)c1ccc(Nc2c3c(nc4ccccc24)CCCC3)cc1	> 59.7 µM	> 95.5 µM	> 88.8 µM	> 88 µM	> 100 µM	56.2 µM	> 43.2 µM	> 100 µM	99.5 µM	22.1 µM	> 74 µM
CN(NC1=NCCO1)c1ccc2ccccc2c1	> 100 µM	> 100 µM	57.3 µM	> 100 µM	> 100 µM	> 100 µM	> 100 µM	97.2 µM	> 100 µM	74.7 µM	> 100 µM
COC(=O)[C@H](Cc1ccccc1)NC(=O)c1ccc(CNC(=O)/C=C/c2csc(-c3ccccc3)n2)cc1	34.5 µM	> 72.2 µM	9.88 µM	58.1 µM	57.7 µM	> 91.7 µM	25.8 µM	9.1 µM	39.6 µM	42 µM	7.72 µM
COc1ccc(/C(Nc2ccccc2)=C(\CCl)c2ccccc2)cc1OC	> 100 µM	> 100 µM	> 100 µM	> 100 µM	> 100 µM	> 100 µM	> 100 µM	79.9 µM	> 100 µM	> 100 µM	> 100 µM
Cc1c(C)c(S(=O)(=O)N(CCCCN)OCCCN)c(C)c2c1OC(C)(C)CC2	41.6 µM	56.3 µM	80.6 µM	36.1 µM	99.4 µM	> 100 µM	40.6 µM	24.9 µM	37.3 µM	32.7 µM	61.4 µM
O=c1cc(Nc2cccc(O)c2)[nH]c(=O)[nH]1	> 100 µM	> 100 µM	> 100 µM	> 100 µM	> 100 µM	> 100 µM	> 100 µM	> 100 µM	> 100 µM	> 100 µM	> 100 µM
C=CCON(C(=O)OC(C)(C)C)C(C)(C)C	> 100 µM	> 100 µM	> 100 µM	> 100 µM	> 100 µM	> 100 µM	> 100 µM	> 100 µM	> 100 µM	> 100 µM	> 100 µM
